{"source": "patent US7265139B2", "about": "“RXR activating molecules” (Incyte San Diego Inc., priority 2001, dated 2007)", "key": {"[1]": {"target": "T1, RXR receptor (Homo sapiens, UniProt P19793)", "T1 construct": "expressed in transfected cells", "T1 sequence (P19793 1-462)": "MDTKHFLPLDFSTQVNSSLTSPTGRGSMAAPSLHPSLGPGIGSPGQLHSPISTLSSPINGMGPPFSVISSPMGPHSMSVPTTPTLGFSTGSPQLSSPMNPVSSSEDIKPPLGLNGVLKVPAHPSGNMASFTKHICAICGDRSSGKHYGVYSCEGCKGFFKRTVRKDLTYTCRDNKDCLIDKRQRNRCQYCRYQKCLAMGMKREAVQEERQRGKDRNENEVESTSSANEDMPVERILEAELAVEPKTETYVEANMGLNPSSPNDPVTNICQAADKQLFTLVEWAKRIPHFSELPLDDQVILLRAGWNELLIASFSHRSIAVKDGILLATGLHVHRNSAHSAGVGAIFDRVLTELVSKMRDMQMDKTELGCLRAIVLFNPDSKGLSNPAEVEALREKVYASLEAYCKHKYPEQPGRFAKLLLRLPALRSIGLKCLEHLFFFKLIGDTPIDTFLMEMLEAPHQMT", "assay": "RXR activation (transient transfection reporter assay)", "assay_type": "cell-based", "conditions": "1 μM compared to 9-cis-RA at equal concentration", "excerpt": "RXR agonists activate the RXR receptor when interacting with RXR by binding to its binding pocket. This activation can be independent of whether the agonist, while interacting with portions of the ligand binding pocket, also interacts with side pocket 1. Activation, also often referred to as transcriptional activation, of RXR by agonists can be measured by a number of commonly used assays where the effect of the agonist ligand interacting with the RXR ligand binding pocket is to stimulate or induce transcription of a gene or genes in a cell. In one particular embodiment, transient transfection experiments (as described essentially by Zhang, et al. (1996) Negative Regulation of Peroxisome Proliferator—Activated Receptor—γ Gene Expression Contributes to the Antiadipogenic effects of Tumor Necrosis Factor—α. Mol. Endo. 10:1457-1456) can be used. In these cases, full length RXR proteins are expressed in living cells. Alternatively, hybrid proteins that contain a portion of another DNA binding domain and the ligand binding portion of the human RXRα receptor can be expressed in living cells instead of the full length RXR protein. Such hybrid proteins can bind to and activate specific reporter genes introduced into the same living cell and activation of such reporter genes is measured. The assays described here are very commonly used today by people skilled in the art of molecular biology experimenting. Transient transection assays are often used instead of ligand binding assays and can serve to measure or estimate an affinity of an RXR agonist ligand for RXR protein. The effective dose fifty (ED50, also called EC50) is the concentration of the ligand necessary to lead to one half maximal activation of the reporter gene in a living cell. Compounds that show 60% of the activity of the agonist 9-cis retenoic acid at 10^−6 M can be considered an RXR activator/agonist. Compounds which show 70% 80% 90% of the activity of the agonist 9-cis retinoic acid are also provided.\nTo confirm that the computer modeling/design of a compound does result in an RXR activator or RXR agonist, i.e. a compound that leads to RXR activation or transcriptional activation, commonly used assays can be applied, where the effect of the agonist or activator, interacting with the RXR ligand binding pocket is to stimulate or induce transcription of a gene or genes in a cell. In one particular embodiment, transient transfection experiments (as described essentially by Zhang, et al. (1996) Negative Regulation of Peroxisome Proliferator—Activated Receptor—γ Gene Expression Contributes to the Antiadipogenic effects of Tumor Necrosis Factor—α. Mol. Endo. 10:1457-1456) can be used. In these cases, full length RXR proteins are expressed in living cells. Alternatively, hybrid proteins that contain a portion of another DNA, binding domain and the ligand binding portion of the human RXRα receptor can be expressed in living cells instead of the fall length RXR protein. Such hybrid proteins can bind to and activate specific reporter genes introduced into the same living cell and activation of such reporter genes is measured (Brand, A. H. & Perrimon, 1993, Development, 118:401-415; Moya-Camarena, S. Y. et.al., 1999, J. Lipid Res., 40:1426:1433; Yi, Y. W. et al., 2000, Biochem. Biophys. Res. Commun., 272:193-198, each are herein incorporated by reference at least for material related to reporter assays). These assays not only measure binding of the ligand to its target, which could also be measured by an in vitro binding assay, but also measure the agonistic or activator activity of the compound. In such an assay, new compounds are compared to a standard activator like compound I or the natural agonist of RXR: 9-cis retinoic acid (see Example 7). For instance, all compounds that show at a given concentration at least 60% of the activity of 9-cis retinoic acid can be considered useful activators."}, "[2]": {"system": "KKA^y mice", "assay": "Antidiabetic activity in type 2 diabetic KKA^y mice", "assay_type": "in vivo, mouse", "experimental": "Prior to commencing treatment, all of the animals are bled from the tail vein and serum levels of glucose and triglyceride are measured in duplicate. The animals are then sorted into different treatment groups with equal average triglyceride levels. The animals are treated with a single daily oral dose of the test compound suspended in sesame oil (dose volume of 3 ml/kg).\nIn short, adult diabetic KKA^y mice are housed in a fixed 12—12-hr artificial light-dark cycle, and maintained on a standard rodent diet. Prior to commencing treatment, all of the animals are bled from the tail vein and serum levels of glucose and triglyceride are measured in duplicate. The animals are then sorted into different treatment groups with equal average triglyceride levels. The animals are treated with a single daily oral dose ranging from 3-30 mg/kg of the test compound suspended in sesame oil (dose volume of 3-5 ml/kg). Following one week of treatment the animals are bled from the tail vein and Serum glucose and triglycerides are measured in duplicate.\nIn this example, compound 1, which belongs to the novel subclass of RXR ligands is compared to a typical RXR ligand like compound 2 in the treatment of KKA^y mice.\nFor this study, adult diabetic KKA^y mice were housed in a fixed 12—12-hr artificial light-dark cycle, and maintained on a standard rodent diet. Prior to commencing treatment, all of the animals are bled from the tail vein and serum levels of glucose and triglyceride are measured in duplicate. The animals are then sorted into different treatment groups with equal average triglyceride levels. The animals are treated with a single daily oral dose of the test compound suspended in sesame oil (dose volume of 3 ml/kg)."}, "[3]": {"conditions": "following one and two weeks of treatment"}}}
{"smiles": "Cc1cc2c(cc1-c1cc(C=C3SC(=O)NC3=O)ccc1OC(F)(F)F)C(C)(C)CCC2(C)C", "note": "[Compound 1]", "values": [{"measurement": "RXR Activation", "setting": "[1]", "value": 110, "unit": "%"}, {"measurement": "serum glucose levels compared to vehicle treated control mice", "setting": "[2]; 5 mg/kg, single daily oral dose in sesame oil, FIG. 10, p≦0.01", "value": "significant decrease"}, {"measurement": "serum triglyceride levels compared to vehicle treated control mice", "setting": "[2]; 5 mg/kg, single daily oral dose, FIG. 11, p≦0.05", "value": "significant decrease"}, {"measurement": "Efficacious in KKAy Mice", "setting": "[2]; efficacious = lowers glucose without increasing triglycerides", "value": "Yes"}, {"measurement": "glucose levels compared to vehicle treated control mice", "setting": "[2]; [3]", "value": "statistically significant decrease"}, {"measurement": "triglyceride levels compared to vehicle treated control mice", "setting": "[2]; [3]", "value": "statistically significant decrease"}]}
